For test [1], the target named is FGFR4-WT (Homo sapiens (Human), UniProt P22455). Kind of test: Omnia assay for potency assessment against FGFR4 enzyme. Type of test: biochemical. To be noted: read-out: FGFR4 IC50. As for the experimental part: A 10× stock solution of FGFR4-WT (PR4380C), (from Invitrogen, Carlsbad, Calif.) corresponding to method a in Table 7, was prepared as described below. Alternatively, a 10× stock solution of FGFR4-WT (F01-11G), (SignalChem, Richmond, BC) corresponding to method b in Table 7, was prepared as described below. A solution of 1.4×ATP (AS001A) and 5×Tyr-Sox conjugated peptide substrate (KNZ3101) were prepared in IX kinase reaction buffer consisting of 20 mM Tris, pH 7.5, 5 mM MgCl2, 1 mM EGTA, 5 mM β-glycerophosphate, 5% glycerol (10× stock, KB002A) and 0.2 mM DTT (DS001A). […] The serially diluted compounds were prepared on a Tecan EVO100. A second addition of 10 μl of Tyr-Sox FGFR4 substrate was added to each well and the kinase reactions were started with the addition of 35 μL of 1.4×ATP. The reactions were monitored every 71 seconds for 240 minutes at λex360/λem485 in a Synergy plate reader from BioTek (Winooski, Vt.).
Chain of FGFR4-WT (P22455 22-802): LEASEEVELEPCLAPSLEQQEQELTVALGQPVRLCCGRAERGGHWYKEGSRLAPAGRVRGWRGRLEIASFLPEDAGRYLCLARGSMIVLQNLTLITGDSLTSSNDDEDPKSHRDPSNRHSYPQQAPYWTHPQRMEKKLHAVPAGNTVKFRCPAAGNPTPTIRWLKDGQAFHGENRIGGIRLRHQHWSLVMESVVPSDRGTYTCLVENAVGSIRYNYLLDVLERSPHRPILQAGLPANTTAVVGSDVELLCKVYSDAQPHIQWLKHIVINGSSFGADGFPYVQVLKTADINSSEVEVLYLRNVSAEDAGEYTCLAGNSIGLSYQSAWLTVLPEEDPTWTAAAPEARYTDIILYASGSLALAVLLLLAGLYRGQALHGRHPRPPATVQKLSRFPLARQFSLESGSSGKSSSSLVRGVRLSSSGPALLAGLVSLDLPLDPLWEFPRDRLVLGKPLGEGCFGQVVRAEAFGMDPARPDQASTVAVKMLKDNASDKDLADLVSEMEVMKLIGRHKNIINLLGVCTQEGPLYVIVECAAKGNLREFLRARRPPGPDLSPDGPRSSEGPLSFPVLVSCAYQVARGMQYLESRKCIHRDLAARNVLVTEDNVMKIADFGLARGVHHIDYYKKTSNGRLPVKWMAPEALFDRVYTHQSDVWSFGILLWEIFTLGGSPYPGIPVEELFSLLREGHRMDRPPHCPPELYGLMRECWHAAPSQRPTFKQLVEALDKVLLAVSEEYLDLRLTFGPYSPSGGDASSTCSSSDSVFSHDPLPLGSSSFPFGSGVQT

For test [2], the target named is pFGFR4 in Huh7 cells (Homo sapiens (Human), UniProt P22455). The experiment in a line: FGFR4 signaling (phospho-FGFR4) in Huh7 cells, MSD. Type of test: cell-based. The note with it: Meso Scale assay (MSD), 1 hr treatment, read-out: Signaling EC50 (nM) pFGFR4 (Huh).
Chain of pFGFR4 in Huh7 cells (P22455 22-802): as above
For test [3], the system named is MDA-MB-453 cells. The experiment in a line: Cell proliferation, MDA-MB-453 (CellTiter Glo). In kind it is cell-based. The note with it: Homo sapiens; MDA-MB-453; 96 hr; read-out: Cell Proliferation GI50 (nM) MDA. A general note: In ATP-based viability assays light output follows the ATP content of the culture.
Test [4] concerns Huh7 cells. The experiment in a line: Cell proliferation, Huh7 (CellTiter Glo). Type of test: cell-based. To be noted: Homo sapiens, Huh-7; Huh7; 120 hr; read-out: Cell Proliferation GI50 (nM) HUH. As for the experimental part: The growth inhibition (GI50) values were determined by Graph Pad Prism.
Test [5] deals with FGFR4 in MDA-MB-453 cells (Homo sapiens (Human), UniProt P22455, Y367C). Kind of test: Target occupancy assay with biotinylated covalent probe I-127. Type of test: cell-based. The note with it: MDA-MB-453 lysate; 2 μM biotinylated probe I-127. As for the experimental part:
In order to assess free FGFR4 protein a biotinylated covalent probe was utilized. […] The reaction was incubated for 2 hr at room temperature. The samples and probe mixture were transferred to a FGFR4-coated MSD plate for 2 hr at room temperature. MSD signals were obtained with an anti-streptavidin Sulfo-tag (Meso Scale) antibody for 1 hr at room temperature.
If a compound completely (100%) covalently modies FGFR4 no free FGFR4 should be available for covalent modification by the biotinylated probe and subsequent binding to streptavidin and detection.

The target of test [6] is T1, pFGFR4 in MDA-MB-453 cells (Homo sapiens (Human), UniProt P22455, Y367C). The experiment in a line: Washout experiment (duration of pFGFR4 inhibition). In kind it is cell-based. To be noted: 1000-2000 nM for 1 hr, washed, up to 24 hr. As for the experimental part:
The cells were allowed to settle down for 4 hrs and were then maintained in low-serum (0.1% FBS) media overnight.
The following morning, the media was removed and the cells were treated with 1000-2000 nM of test compound in low-serum media for 1 hr. The cells were washed free of test compound (3×) with PBS (Invitrogen). One set of cells was immediately lysed as indicated above as the 0 hr time point. The remaining cells were incubated with the appropriate complete growth media (10-20% FBS) for 1, 2, 4, 8, 16 (in certain circumstances) and 24 hr. DMSO (0.5%) controls were collected at all time points.

The target of test [7] is T1, pFGFR4 in MDA-MB-453 cells. Kind of test: FGFR4 signaling (phospho-FGFR4) in MDA-MB-453 cells. Type of test: cell-based. To be noted: 1 hr treatment.
Method: Huh7 cells were grown in DMEM (Invitrogen, Carlsbad, Calif.) supplemented with 10% FBS (Invitrogen) and 1% Penicillin-Streptomycin (P/S, Lonza, Walkersville, Md.).
For the MSD and ELISA assays, total FGFR4 antibodies were obtained from R&D Systems (Minneapolis, Minn.) and used at 1:500. For the immunoblotting (Western blotting) assay, total FGFR4 antibody was obtained from Santa Cruz (Santa Cruz, Calif.) and used at 1:1000. Phospho-FGFR antibodies were obtained from Cell Signaling (Danvers, Mass.) or R&D Systems and used at 1:1000. The phopho-FGFR antibody from Cell Signaling was used for immunoblotting, whereas the phopho-FGFR antibody from R&D was used for MSD and ELISA assays. Secondary antibodies were used at 1:10,000. The goat anti-mouse IgG IRDye 800CW antibody was obtained from LiCor Biosciences (Lincoln, Nebr.) and the goat anti-rabbit IgG Alexa Fluor 680 was obtained from Invitrogen. The anti-rabbit Sulfo-tag and anti-streptavidin Sulfo-tag antibodies was obtained from Meso Scale Discovery (Gaithersburg, Md.), and were used at 1:1000 and 1:5000, respectively.
For MDA-MB-453 cells signaling, cells were grown in 96-well poly-D-lysine plates (BD Bioscience, San Jose, Calif.) to 90% confluence, and were then incubated in low-serum (0.1% FBS) media for 16-18 hr. […] After treatment, the cells were washed with cold PBS (Invitrogen) and were immediately lysed by freeze/thawing 3× in 32 μL of cold Cell Extraction Buffer (Invitrogen) which was supplemented with Complete Protease inhibitors (Roche, Indianapolis, Ind.) and PhosphoSTOP (Roche) phosphatase inhibitors.
Phospho-protein signals were quantitated using Odyssey Infrared Imaging (Li-Cor Biosciences).
To assess phospho-FGFR signaling, the blots were probed with anti-Phospho-FGFR (Y653/Y654) and total anti-FGFR antibodies. The phospho-FGFR signal was normalized to total FGFR expression for each sample. […] The normalized data was fitted using a sigmoidal curve analysis program (Graph Pad Prism version 5) with variable Hill slope to determine the EC50 values.
After treatment, the cells were washed with cold PBS (Invitrogen), and were immediately lysed by freeze/thawing 3× in 32 μL of cold Cell Extraction Buffer (Invitrogen), which was supplemented with Complete Protease inhibitors (Roche) and PhosphoSTOP (Roche) phosphatase inhibitors.
MSD plates (Meso Scale Discovery) were coated with total FGFR-4 antibodies overnight at 4° C. A lysate (25 μL) was added to the MSD plate overnight at 4° C. The MSD signals were obtained by incubating with a phospho-FGFR antibody (R&D Systems) and an anti-rabbit sulfo-tag antibody (Meso Scale), for 2 hr at room temperature. […] The data was fitted using a sigmoidal curve analysis program (Graph Pad Prism version 5) with variable Hill slope to determine the EC50 values.
MDA-MB-453 cells were grown in 96-well poly-D-lysine plates (BD Bioscience, San Jose, Calif.) to 90% confluence. The cells were then incubated in low-serum (0.1% FBS) media for 16-18 hr. […] After treatment, the MDA-MB-453 cells were washed with cold PBS (Invitrogen) and were immediately lysed by freeze/thawing 3× in 32 μL of cold Cell Extraction Buffer (Invitrogen), which was supplemented with Complete Protease inhibitors (Roche) and PhosphoSTOP (Roche) phosphatase inhibitors.
Nunc-immuno plates (96-well; Sigma, St. Louis, Mo.) were coated with total FGFR-4 antibodies overnight at 4° C. A lysate (25 μL) was added to the plate for 2 hr at room temperature. A phospho-FGFR detection antibody (100 μL) was added per well for 2 hr at room temperature, followed by a goat anti-rabbit HRP antibody (100 μL) for 45 min. […] The data was fitted using a sigmoidal curve analysis program (Graph Pad Prism version 5) with variable Hill slope to determine the EC50 values.
Where [8] appears, read: method a: Invitrogen FGFR4-WT 10 nM, ATP 300 uM, Y10-Sox 10 uM.
[9] abbreviates: Method A immunoblotting (Western blotting).

“Also recorded” adds a separate entry of the source. Read-outs that look alike come from different tables or passages of the source.

T1 sequence (P22455 22-802 Y367C): as the sequence (P22455 22-802) above, with Y346C counted along it
Chain of FGFR4 in MDA-MB-453 cells (P22455 22-802 Y367C): as the sequence (P22455 22-802) above, with Y346C counted along it

Take `C=CC(=O)NC1CCCCC1Nc1ncc2c(n1)N(CCOC)C(=O)N(c1c(Cl)c(OC)cc(OC)c1Cl)C2` (racemic) [I-61]: in test [1] (setting [8]), the IC50 (as a rule, the point on the concentration scale where inhibition reaches its midpoint) was below 100 nM. For the same compound, the EC50 in test [2] and in test [5] was 101 to 500 nM each time. The GI50 is 101 to 500 nM in test [3] and 501 to 999 nM in test [4].

With `C=CC(=O)NC1CCCCC1Nc1ncc2c(n1)N(C1CC1)C(=O)N(c1c(Cl)c(OC)cc(OC)c1Cl)C2` (racemic) [I-68], the IC50 in test [1] (setting [8]) lay within 101 to 500 nM. For the same compound, the EC50 (commonly the concentration that produces a half-maximal response) in test [2] is 501 to 999 nM. For the same compound, the GI50 in test [3] and in test [4] was above 1000 nM each time.

As for `C=CC(=O)NC1CCCCC1Nc1ncc2c(n1)N(Cc1cscn1)C(=O)N(c1c(Cl)c(OC)cc(OC)c1Cl)C2` (racemic) [I-69], the IC50 in test [1] (setting [8]) is below 100 nM. The GI50 in test [3] was in the range of 101 to 500 nM; in test [4], 501 to 999 nM. Moreover, the “duration of action against pFGFR4 signalling after washout” value (“duration of action” below) in test [6] was “prolonged inhibition of autophosphorylation of FGFR4; also recorded: prolonged duration of action”.

Regarding `C=CC(=O)NC1CCCCC1Nc1ncc2c(n1)N(CCF)C(=O)N(c1cc(OC)cc(OC)c1Cl)C2` (racemic) [I-111], the IC50 in test [1] (setting [8]) lay in the range of 501 to 999 nM. Also, in test [2], the EC50 was above 1000 nM. Moreover, the GI50 in test [4] was above 1000 nM.

Consider `C=CC(=O)Nc1ccccc1Nc1ncc2c(n1)N(Cc1cccc(NC(=O)CC)c1)C(=O)N(c1c(Cl)c(OC)cc(OC)c1Cl)C2` [I-1], for which the IC50 in test [1] (setting [8]) is below 100 nM. Also, the concentration for a half-maximal effect (EC50) in test [2] and in test [5] was below 100 nM in each case. The figures for the GI50 in test [3] and in test [4] were below 100 nM and 101 to 500 nM, respectively. Moreover, in test [6], the “duration of action” value was “prolonged duration of action; also recorded: has PDA”.

Turning to `C=CC(=O)Nc1ccccc1Nc1ncc2c(n1)N(C)C(=O)N(c1c(Cl)c(OC)cc(OC)c1Cl)C2` [I-2], the EC50 in test [7] (setting [9]) is below 100 nM. For the same compound, the GI50 in test [3] is below 100 nM; in test [4], 101 to 500 nM.

On to `C=CC(=O)Nc1ccccc1Nc1ncc2c(n1)N(Cc1ccccc1)C(=O)N(c1c(Cl)c(OC)cc(OC)c1Cl)C2` [I-3], for which the EC50 in test [7] (Method C ELISA) and in test [5] was below 100 nM throughout. Further, the GI50 in test [3] and in test [4] was below 100 nM in each case.

In test [7] (setting [9]), `C=CC(=O)NCc1ccccc1Nc1ncc2c(n1)N(Cc1cccc(NC(=O)CC)c1)C(=O)N(c1c(Cl)c(OC)cc(OC)c1Cl)C2` [I-179] registered an EC50 below 100 nM. In addition, the GI50 in test [3] and in test [4] was 101 to 500 nM in each case.

In test [7] (Method C ELISA), `C=CC(=O)Nc1ccccc1CNc1ncc2c(n1)N(Cc1cccc(NC(=O)CC)c1)C(=O)N(c1c(Cl)c(OC)cc(OC)c1Cl)C2` [I-180] showed an EC50 below 100 nM.

In the case of `C=CC(=O)Nc1cccc(Nc2ncc3c(n2)N(Cc2cccc(NC(=O)CC)c2)C(=O)N(c2c(Cl)c(OC)cc(OC)c2Cl)C3)c1` [I-232], the IC50 in test [1] was below 100 nM. The compound further had an EC50 in test [7] (setting [9]) below 100 nM.

As to `C=CC(=O)Nc1ccc(Nc2ncc3c(n2)N(Cc2cccc(NC(=O)CC)c2)C(=O)N(c2c(Cl)c(OC)cc(OC)c2Cl)C3)cc1` [I-233], the IC50 in test [1] (method b: SignalChem FGFR4-WT 2.5 nM, ATP 250 uM, Y10-Sox 10 uM) is below 100 nM. The same compound gave an EC50 in test [7] (setting [9]) below 100 nM.

For `CCC(=O)Nc1cccc(CN2C(=O)N(c3c(Cl)c(OC)cc(OC)c3Cl)Cc3cnc(Nc4ccccc4NC(=O)CC)nc32)c1` [I-234], the EC50 is 101 to 500 nM in test [7] (setting [9]) and above 1000 nM in test [5]. For the same compound, the GI50 in test [3] was above 1000 nM. For the same compound, the “duration of action” value in test [6] is recorded as “does not show prolonged duration of action; also recorded: does not have PDA”.

These data come from US10189794B2, “Heteroaryl compounds and uses thereof” (Celgene CAR LLC, priority 2013, dated 2019).
